Patent US20230123334A1, “AMINO LIPID COMPOUND, PREPARATION METHOD THEREFOR, AND APPLICATION THEREOF” (SHENZHEN SHENXIN BIOTECHNOLOGY CO., LTD., priority 2020, published 2023)

What was measured:
HEK293 cells [1] = assay: Preliminary screening as DNA vectors, GFP transfection of HEK293 cells; assay type: cell-based; conditions: HEK293 cells; lipid/DOPE liposome with 75 ng plasmid DNA (psin-EGFP-IRES-Puro); number of cells expressing GFP divided by total number of nuclei (Hoechst)
Method in brief: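 HEK293 cells in DMEM/10% FBS transfected with 75 ng EGFP plasmid per well complexed with amino lipid/DOPE liposomes in pH 5.6 sodium acetate. Hoechst nuclear stain added 20-24 h post-transfection, then cells cultured another 20-24 h. Confocal imaging gives GFP-positive cells as % of total nuclei.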

HEK293 cells [2] = assay: Preliminary screening as mRNA vectors, EGFP mRNA transfection of HEK293 cells; assay type: cell-based; conditions: HEK293 cells, 96-well plates, EGFP mRNA 50 ng per well; percentage of GFP fluorescent cells relative to total number of cells (Hoechst)
Method in brief: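 HEK293 cells in DMEM plus 10% FBS transfected in 96-well format with 50 ng EGFP mRNA per well; Lipofectamine2000 served as positive control. Read-out is the percentage of GFP-fluorescent cells among total cells, counted by Hoechst nuclear stain.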

SMILES | Absolute DNA transfection efficiency in HEK293 cells (HEK293 cells [1]) | Absolute mRNA transfection efficiency in HEK293 cells (HEK293 cells [2])
CCCCCCCCCCCCN(CCCCCCCCCCCC)c1nc(NCCCCCC)nc(NCC2CCN(C)CC2)n1 [N6^2N12D10] | 0.4% | 0.0%
CCCCCCCCCCCCCCCCCCNc1nc(NCCCCCCC)nc(NCC2CCN(C)CC2)n1 [Compound N7N18D10] | 15.6% | 73.8%
CCCCCCCCCCCCSc1nc(NCCCN(C)C)nc(SCCCCCCCCCCC)n1 [Compound S11S12D6] | 5.2% | 21.5%
CCCCCCCCCCCCCNc1nc(NCCCCCCCC)nc(NCCN(CC)CC)n1 [Compound N8N13D7] | 0.0% | 0.0%
CCCCCCCCCCCCCCCCSc1nc(NCCN(C)C)nc(SCCCCCCCCCCCCCCCC)n1 [Compound S16S16D1] | 0.6% | 0.4%
CCCCCCCCCCCCCCCCCCSc1nc(NCCN(C)C)nc(SCCCCCCCCCCCCCC)n1 [Compound S14S18D1] | 0.0% | 0.0%
CCCCCCNc1nc(NCCCCCC)nc(NCCCN(C)C)n1 [Compound N6N6D6] | 0.0% | 0.0%
CCCCCCCCCCCCCCCNc1nc(NCCCCCCCCCCCCCCC)nc(NCCN2CCN(C)CC2)n1 [Compound N15N15D5] | 0.9% | 0.0%
CCCCCCCCCCCCCCCCNc1nc(NCCCCCC)nc(NCCCN2CCOCC2)n1 [Compound N6N16D8] | 0.6% | 0.0%
CCCCCCCCCCCCCCCCCCNc1nc(NCCCCCC)nc(NCCN2CCCCC2)n1 [Compound N6N18D4] | 2.0% | 0.2%
CCCCCCCCCCCCCCCCNc1nc(NCCCCCCCCCCCCCCC)nc(NCCCN2CCOCC2)n1 [Compound N15N16D8] | 0.0% | 0.0%
CCCCCCCCCNc1nc(NCCCCCC)nc(NCCN2CCCC2)n1 [Compound N6N9D3] | 0.3% | 0.4%
CCCCCCCCCCCCCCCCCCSc1nc(NCCN2CCOCC2)nc(SCCCCCCCCC)n1 [Compound S9S18D2] | 2.3% | 0.0%
CCCCCCCCCCCNc1nc(NCCCCCCCCCCC)nc(NCCCN(C)C)n1 [Compound N11N11D6] | 0.7% | 1.1%
CCCCCCCCCCCCN(CCCCCCCCCCCC)c1nc(NCCCCCCCC)nc(NCCN2CCCCC2)n1 [N8^2N12D4] | 0.0% | 0.2%
CCCCCCCCCCCCCCCSc1nc(NCCCN2CCOCC2)nc(SCCCCCCCCCCCCCCC)n1 [Compound S15S15D8] | 0.0% | 0.2%
CCCCCCCCCCCCCCCNc1nc(NCCCCCCCCC)nc(NCC2CCN(C)CC2)n1 [Compound N9N15D10] | 0.0% | 1.7%
CCCCCCCCCCCCCCCCSc1nc(NCCCN2CCOCC2)nc(SCCCCCCCCCCC)n1 [Compound S11S16D8] | 4.7% | 0.9%
CCCCCCCCCCCCCCCCNc1nc(NCCCCCCCC)nc(NCCCN2CCOCC2)n1 [Compound N8N16D8] | 2.3% | 0.2%
CCCCCCCCNc1nc(NCCCCCCCC)nc(NCCN2CCOCC2)n1 [Compound N8N8D2] | 0.0% | 0.0%
CCCCCCNc1nc(NCCCCCC)nc(NCCCN2CCOCC2)n1 [Compound N6N6D8] | 0.0% | 0.0%
CCCCCCCCCNc1nc(NCCCCCCCCC)nc(NCCCN2CCN(C)CC2)n1 [Compound N9N9D9] | 0.0% | 0.2%
CCCCCCCCCCCCNc1nc(NCCCCCCC)nc(NCCN2CCCCC2)n1 [Compound N7N12D4] | 0.0% | 0.6%
CCCCCCCCCCCCCCCCCCSc1nc(NCCN2CCOCC2)nc(SCCCCCCCCCCCCCCC)n1 [Compound S15S18D2] | 0.1% | 0.5%

SMILES | Absolute DNA transfection efficiency in HEK293 cells (HEK293 cells [1]) | Absolute mRNA transfection efficiency in HEK293 cells (HEK293 cells [2])
CCCCCCCCCCCCCCCNc1nc(NCCN(CC)CC)nc(N(CCCCCCCCCCCC)CCCCCCCCCCCC)n1 [N15^2N12D7] | 1.3% | 0.0%
CCCCCCCCCCCCN(CCCCCCCCCCCC)c1nc(NCCCCCCCCC)nc(NCCN2CCCC2)n1 [N9^2N12D3] | 0.4% | 2.3%
CCCCCCCCCCCCCCCCSc1nc(NCCCN2CCOCC2)nc(SCCCCCCCCCCCCCC)n1 [Compound S14S16D8] | 0.0% | 0.0%
CCCCCCCCCCCCCCCCSc1nc(NCCN2CCCCC2)nc(SCCCCCCCCCCCC)n1 [Compound S12S16D4] | 3.3% | 6.3%
CCCCCCCCCCCCCCCCNc1nc(NCCCCCCCCCCCCC)nc(NCCCN2CCOCC2)n1 [Compound N13N16D8] | 0.0% | 3.3%
CCCCCCCCCCCCN(CCCCCCCCCCCC)c1nc(NCCCCCC)nc(NCCCN2CCOCC2)n1 [N6^2N12D8] | 0.0% | 0.0%
CCCCCCCCCCCCCCCCNc1nc(NCCCCCCCCCCCCCCC)nc(NCCN(CC)CC)n1 [Compound N15N16D7] | 0.9% | 0.0%
CCCCCCCCCCCCNc1nc(NCCCCCCCC)nc(NCCN2CCCC2)n1 [Compound N8N12D3] | 2.4% | 0.5%
CCCCCCCCCCCCCNc1nc(NCCCCCCCC)nc(NCCN2CCOCC2)n1 [Compound N8N13D2] | 0.0% | 0.1%
CCCCCCCCCCCSc1nc(NCCN2CCCC2)nc(SCCCCCCCCC)n1 [Compound S9S11D3] | 10.0% | 1.9%
CCCCCCCCCCCCCNc1nc(NCCN2CCOCC2)nc(N(CCCCCCCCCCCC)CCCCCCCCCCCC)n1 [N13^2N12D2] | 0.1% | 0.5%
CCCCCCCCCCCCCCCNc1nc(NCCCCCCC)nc(NCCCN2CCN(C)CC2)n1 [Compound N7N15D9] | 0.6% | 0.7%
CCCCCCCCCCCCNc1nc(NCCCCCC)nc(NCCCN2CCOCC2)n1 [Compound N6N12D8] | 0.0% | 0.1%
CCCCCCCCCCCCCCCSc1nc(NCCN2CCN(C)CC2)nc(SCCCCCCCCCCCC)n1 [Compound S12S15D5] | 0.1% | 1.4%
CCCCCCCCCNc1nc(NCCCCCCC)nc(NCCN2CCCC2)n1 [Compound N7N9D3] | 0.0% | 0.1%
CCCCCCCCCCCCNc1nc(NCCCCCCCC)nc(NCC2CCN(C)CC2)n1 [Compound N8N12D10] | 0.7% | 2.3%
CCCCCCCCCCCCCCCSc1nc(NCC2CCN(C)CC2)nc(SCCCCCCCCCCCCCCC)n1 [Compound S15S15D10] | 1.0% | 0.3%
CCCCCCCCCCCCCCCSc1nc(NCCN2CCOCC2)nc(SCCCCCCCCCCCC)n1 [Compound S12S15D2] | 0.5% | 0.0%
CCCCCCCCCCCCCCCSc1nc(NCCCN2CCN(C)CC2)nc(SCCCCCCCCCCCC)n1 [Compound S12S15D9] | 2.0% | 0.9%
CCCCCCCCNc1nc(NCCCCCCC)nc(NCCN(C)C)n1 [Compound N7N8D1] | 0.2% | 0.0%
CCCCCCCCNc1nc(NCCCCCC)nc(NCCCN2CCN(C)CC2)n1 [Compound N6N8D9] | 0.0% | 0.0%
CCCCCCCCCCCCCCSc1nc(NCCN2CCN(C)CC2)nc(SCCCCCCCCCCC)n1 [Compound S11S14D5] | 5.1% | 9.1%
CCCCCCCCCCCCCCCCCCSc1nc(NCCN2CCCC2)nc(SCCCCCCCCCCCC)n1 [Compound S12S18D3] | 2.1% | 0.2%
CCCCCCCCCCCCSc1nc(NCCN2CCCC2)nc(SCCCCCCCCCCCC)n1 [Compound S12S12D3] | 2.1% | 11.0%
